# Experimental data reported in PubChem BioAssay AID1963961 (Molecular Pharmacology Branch, DTP, NCI, 2024).
# Tested on: K98450-129-R-PDC multicell spheroids, viability
# Assay: Anticancer human tumor K98450-129-R-PDC patient-derived colon adenocarcinoma cell line growth inhibition [PI3K]
# Conditions: for IC50: curve of first compound; for viability, T/C: stronger effect = lower value
# Procedure, shortened: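 Viability of mixed-cell spheroids was determined after exposure to pairwise combinations, one partner being inavolisib, alpelisib, duvelisib or copanlisib. Highest tested concentration matched clinical Cmax where known and 10 microM where not, descending in half-log steps.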
# [1] = second compound 0.0316 µM, first compound 0.0316 µM
# [2] = second compound 0.0316 µM, first compound 0.1 µM
# [3] = second compound 0.0316 µM, first compound 0.316 µM
# [4] = second compound 0.0316 µM, first compound 1 µM
# [5] = second compound 0.0316 µM, first compound 3.16 µM
# [6] = second compound 0.0316 µM, first compound 10 µM
# [7] = second compound 0.1 µM, first compound 0.0316 µM
# [8] = second compound 0.1 µM, first compound 0.1 µM
# [9] = second compound 0.1 µM, first compound 0.316 µM
# [10] = second compound 0.1 µM, first compound 1 µM
# [11] = second compound 0.1 µM, first compound 3.16 µM
# [12] = second compound 0.1 µM, first compound 10 µM
# [13] = second compound 0.316 µM, first compound 0.0316 µM
# [14] = second compound 0.316 µM, first compound 0.1 µM
# [15] = second compound 0.316 µM, first compound 0.316 µM
# [16] = second compound 0.316 µM, first compound 1 µM
# [17] = second compound 0.316 µM, first compound 3.16 µM
# [18] = second compound 0.316 µM, first compound 10 µM
# [19] = second compound 1 µM, first compound 0.0316 µM
# [20] = second compound 1 µM, first compound 0.1 µM
# [21] = second compound 1 µM, first compound 0.316 µM
# [22] = second compound 1 µM, first compound 1 µM
# [23] = second compound 1 µM, first compound 3.16 µM
# [24] = second compound 1 µM, first compound 10 µM
# [25] = second compound 3.16 µM, first compound 0.0316 µM
# [26] = second compound 3.16 µM, first compound 0.1 µM
# [27] = second compound 3.16 µM, first compound 0.316 µM
# [28] = second compound 3.16 µM, first compound 1 µM
# [29] = second compound 3.16 µM, first compound 3.16 µM
# [30] = second compound 3.16 µM, first compound 10 µM
# [31] = second compound 10 µM, first compound 0.0316 µM
# [32] = second compound 10 µM, first compound 0.1 µM
# [33] = second compound 10 µM, first compound 0.316 µM
# [34] = second compound 10 µM, first compound 1 µM
# [35] = second compound 10 µM, first compound 3.16 µM
# [36] = second compound 10 µM, first compound 10 µM
# 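Also: spheroids exposed to agents for seven days before read-out.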
smiles,measurement,setting,value
C#Cc1c(F)ccc2cc(O)cc(-c3ncc4c(N5CC6CCC(C5)N6)nc(OCC56CCCN5CC(F)C6)nc4c3F)c12 (stereo not drawn) + Cc1nc(NC(=O)N2CCCC2C(N)=O)sc1-c1ccnc(C(C)(C)C(F)(F)F)c1,IC50,second compound 0.0316 µM,> 10 µM
same,IC50,second compound 0.1 µM,> 10 µM
same,IC50,second compound 0.316 µM,> 10 µM
same,IC50,second compound 1 µM,> 10 µM
same,IC50,second compound 3.16 µM,> 10 µM
same,IC50,second compound 10 µM,7.68 µM
same,"viability, T/C",[1],108%
same,"viability, T/C",[2],97.4%
same,"viability, T/C",[3],99.1%
same,"viability, T/C",[4],95.5%
same,"viability, T/C",[5],93.7%
same,"viability, T/C",[6],83.2%
same,"viability, T/C",[7],122%
same,"viability, T/C",[8],97%
same,"viability, T/C",[9],102%
same,"viability, T/C",[10],88.7%
same,"viability, T/C",[11],92.9%
same,"viability, T/C",[12],82.2%
same,"viability, T/C",[13],93.4%
same,"viability, T/C",[14],96.2%
same,"viability, T/C",[15],93.7%
same,"viability, T/C",[16],83.8%
same,"viability, T/C",[17],90.2%
same,"viability, T/C",[18],77.7%
same,"viability, T/C",[19],89.5%
same,"viability, T/C",[20],92.4%
same,"viability, T/C",[21],89%
same,"viability, T/C",[22],85%
same,"viability, T/C",[23],87.8%
same,"viability, T/C",[24],76.5%
same,"viability, T/C",[25],74.3%
same,"viability, T/C",[26],78.9%
same,"viability, T/C",[27],87.3%
same,"viability, T/C",[28],75.3%
same,"viability, T/C",[29],77.4%
same,"viability, T/C",[30],63.5%
same,"viability, T/C",[31],75.6%
same,"viability, T/C",[32],69.2%
same,"viability, T/C",[33],67.3%
same,"viability, T/C",[34],63.1%
same,"viability, T/C",[35],57.6%
same,"viability, T/C",[36],47.3%
C=CC(=O)N1CCN(c2nc(=O)n(-c3c(C)ccnc3C(C)C)c3nc(-c4c(O)cccc4F)c(F)cc23)C(C)C1 (stereo not drawn) + Cc1nc(NC(=O)N2CCCC2C(N)=O)sc1-c1ccnc(C(C)(C)C(F)(F)F)c1,IC50,second compound 0.0316 µM,4.01 µM
same,IC50,second compound 0.1 µM,3.48 µM
same,IC50,second compound 0.316 µM,2.63 µM
same,IC50,second compound 1 µM,1.91 µM
same,IC50,second compound 3.16 µM,1.33 µM
same,IC50,second compound 10 µM,0.502 µM
same,"viability, T/C",[1],111%
same,"viability, T/C",[2],102%
same,"viability, T/C",[3],97.3%
same,"viability, T/C",[4],84.5%
same,"viability, T/C",[5],52.8%
same,"viability, T/C",[6],33.1%
same,"viability, T/C",[7],102%
same,"viability, T/C",[8],94%
same,"viability, T/C",[9],96.8%
same,"viability, T/C",[10],77.7%
same,"viability, T/C",[11],52.4%
same,"viability, T/C",[12],28.2%
same,"viability, T/C",[13],102%
same,"viability, T/C",[14],106%
same,"viability, T/C",[15],93.6%
same,"viability, T/C",[16],78.7%
same,"viability, T/C",[17],44%
same,"viability, T/C",[18],26.8%
same,"viability, T/C",[19],90.5%
same,"viability, T/C",[20],92.7%
same,"viability, T/C",[21],84.4%
same,"viability, T/C",[22],69%
same,"viability, T/C",[23],35.4%
same,"viability, T/C",[24],22.7%
same,"viability, T/C",[25],83.7%
same,"viability, T/C",[26],85%
same,"viability, T/C",[27],86.5%
same,"viability, T/C",[28],55.7%
same,"viability, T/C",[29],29.1%
same,"viability, T/C",[30],17.6%
same,"viability, T/C",[31],73.9%
same,"viability, T/C",[32],79.3%
same,"viability, T/C",[33],61.6%
same,"viability, T/C",[34],31.1%
same,"viability, T/C",[35],12.9%
same,"viability, T/C",[36],8.56%
CC(Cn1ccc(-c2ccc(C#N)c(Cl)c2)n1)NC(=O)c1cc(C(C)O)[nH]n1 (stereo not drawn) + Cc1nc(NC(=O)N2CCCC2C(N)=O)sc1-c1ccnc(C(C)(C)C(F)(F)F)c1,IC50,second compound 0.0316 µM,> 10 µM
same,IC50,second compound 0.1 µM,> 10 µM
same,IC50,second compound 0.316 µM,> 10 µM
same,IC50,second compound 1 µM,> 10 µM
same,IC50,second compound 3.16 µM,> 10 µM
same,IC50,second compound 10 µM,> 10 µM
same,"viability, T/C",[1],103%
same,"viability, T/C",[2],98.6%
same,"viability, T/C",[3],107%
same,"viability, T/C",[4],105%
same,"viability, T/C",[5],99.8%
same,"viability, T/C",[6],103%
same,"viability, T/C",[7],108%
same,"viability, T/C",[8],99.3%
same,"viability, T/C",[9],104%
same,"viability, T/C",[10],94.2%
same,"viability, T/C",[11],99.5%
same,"viability, T/C",[12],103%
same,"viability, T/C",[13],104%
same,"viability, T/C",[14],94.4%
same,"viability, T/C",[15],99.3%
same,"viability, T/C",[16],98.6%
same,"viability, T/C",[17],102%
same,"viability, T/C",[18],103%
same,"viability, T/C",[19],86.4%
same,"viability, T/C",[20],101%
same,"viability, T/C",[21],98.3%
same,"viability, T/C",[22],88.8%
same,"viability, T/C",[23],98.2%
same,"viability, T/C",[24],84.8%
same,"viability, T/C",[25],85.1%
same,"viability, T/C",[26],81.4%
same,"viability, T/C",[27],86.8%
same,"viability, T/C",[28],84%
same,"viability, T/C",[29],94%
same,"viability, T/C",[30],85.8%
same,"viability, T/C",[31],75.6%
same,"viability, T/C",[32],72.1%
same,"viability, T/C",[33],80.3%
same,"viability, T/C",[34],81.1%
same,"viability, T/C",[35],80.8%
same,"viability, T/C",[36],74.3%
CC1(C)CCC(Nc2ncc(C(F)(F)F)c(-c3c[nH]c4c(P(C)(C)=O)c(C#N)ccc34)n2)CN1 (stereo not drawn) + Cc1nc(NC(=O)N2CCCC2C(N)=O)sc1-c1ccnc(C(C)(C)C(F)(F)F)c1,IC50,second compound 0.0316 µM,> 10 µM
same,IC50,second compound 0.1 µM,> 10 µM
same,IC50,second compound 0.316 µM,> 10 µM
same,IC50,second compound 1 µM,> 10 µM
same,IC50,second compound 3.16 µM,> 10 µM
same,IC50,second compound 10 µM,> 10 µM
same,"viability, T/C",[1],118%
same,"viability, T/C",[2],101%
same,"viability, T/C",[3],94.7%
same,"viability, T/C",[4],68.7%
same,"viability, T/C",[5],69.8%
same,"viability, T/C",[6],64.6%
same,"viability, T/C",[7],116%
same,"viability, T/C",[8],104%
same,"viability, T/C",[9],87.2%
same,"viability, T/C",[10],67.4%
same,"viability, T/C",[11],71.1%
same,"viability, T/C",[12],67.6%
same,"viability, T/C",[13],104%
same,"viability, T/C",[14],102%
same,"viability, T/C",[15],84.7%
same,"viability, T/C",[16],69%
same,"viability, T/C",[17],69.7%
same,"viability, T/C",[18],66.7%
same,"viability, T/C",[19],103%
same,"viability, T/C",[20],96.8%
same,"viability, T/C",[21],85.8%
same,"viability, T/C",[22],69.6%
same,"viability, T/C",[23],70%
same,"viability, T/C",[24],63.4%
same,"viability, T/C",[25],88.1%
same,"viability, T/C",[26],95.5%
same,"viability, T/C",[27],83%
same,"viability, T/C",[28],67.8%
same,"viability, T/C",[29],67.4%
same,"viability, T/C",[30],56.5%
same,"viability, T/C",[31],81.6%
same,"viability, T/C",[32],85.5%
same,"viability, T/C",[33],70%
same,"viability, T/C",[34],60.8%
same,"viability, T/C",[35],62.4%
same,"viability, T/C",[36],50.5%
